Results: patent US11384078B2, “5,6-fused-bicyclic compounds and compositions for the treatment of parasitic diseases” (NOVARTIS AG, priority 2017, dated 2022)
Like-named read-outs stand apart in the source and are kept apart here.

What was measured:
Assay type in all cases: cell-based
[1] = system: Leishmania donovani axenic amastigote; test: In vitro assay for growth inhibition of Leishmania donovani axenic amastigote (Cell TiterGlo luminescence); details: L. donovani axenic amastigotes in vitro, read-out: L. donovani amastigotes EC50
How it was run: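 Axenic L. donovani amastigotes (9600/well) grown at 37 °C, 5% CO2 in supplemented RPMI 1640, pH 5.5, with compound added from DMSO. After two days, viability read by CellTiter-Glo luminescence against DMSO and control-compound wells.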

[2] = system: L. donovani HU3 strain in mouse peritoneal macrophages; test: Assay for inhibition of parasitemia of Leishmania donovani in mouse macrophages (SYBR Green nuclei count, high-content imaging); details: L. donovani in mouse peritoneal macrophages, read-out: L. donovani in Mouse Macrophages EC50
How it was run: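 Peritoneal macrophages from uninfected BALB/c mice were infected for 24 h with spleen-derived L. donovani HU3 (4×10^5 parasites per 2×10^4 macrophages), then cultured with compound for 5 days at 37° C, 5% CO2. After fixation and permeabilization, parasite nuclei were stained with SYBR Green and counted by high-content imaging.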

[3] = system: Trypanosoma cruzi amastigotes cultured in 3T3 fibroblast cells; test: Assay for growth inhibition of kinetoplastid parasite Trypanosoma cruzi (beta-galactosidase Tulahuen strain, CPRG readout); details: T. cruzi amastigotes in 3T3 fibroblast cells, read-out: Buckner infectious T. cruzi EC50
How it was run: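 3T3 fibroblasts (1,000 cells/well) plated overnight, treated with compound in DMSO, then infected with 10,000 Lac-Z-expressing Tulahuen trypomastigotes. After 6 days, 0.6 mM CPRG with 0.6% NP-40 added for 2 h at room temperature; absorbance gives relative intracellular amastigote numbers. Benznidazole and nifurtimox serve as positive controls.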

[4] = system: Trypanosoma brucei brucei (Lister 427) strain; test: Assay for growth inhibition against Trypanosoma brucei brucei (Cell TiterGlo ATP luminescence); details: T. brucei brucei (Lister 427), read-out: T. Brucei (HAT) EC50
How it was run: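 T. b. brucei Lister 427 grown in HMI-9 with 10% FBS and 10% serum plus, seeded at 10,000 parasites/mL with 10-point threefold compound dilutions in duplicate, 37 °C for 2 days. Viability read as ATP luminescence 30 min after Cell TiterGlo; IC50 versus untreated controls.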

[5] = Leishmania donovani, Peritoneal macrophage

Row | Structure (SMILES) | EC50 ([1]; Leishmania donovani) [nM] | EC50 [2, 5] [nM] | EC50 ([3]; Trypanosoma cruzi, Fibroblast) [nM] | EC50 ([4]; Trypanosoma brucei) [nM] | EC50 [1] [nM] | EC50 [2] [nM] | EC50 [3] [nM] | EC50 [4] [nM]
1 | O=C(Nc1ccc(F)c(-n2cc3cccnc3n2)c1)N1CC(F)C1 [Compound 311, 3-fluoro-N-(4-fluoro-3-(2H-pyrazolo[3,4-b]pyridin-2-yl)phenyl)azetidine-1-carboxamide] | 58 | 33 | 31 | 27 | – | – | – | –
2 | O=C(Nc1ccc(F)c(-n2cc3cc(Br)cnc3n2)c1)c1ccco1 [Compound 130, N-(3-(5-bromo-2H-pyrazolo[3,4-b]pyridin-2-yl)-4-fluorophenyl)furan-2-carboxamide] | 190 | 160 | 36 | 40 | – | – | – | –
3 | Cc1nc(C)c(C(=O)Nc2ccc(F)c(-n3cc4cc(C5CCC5)cnc4n3)c2)o1 [Compound 101, N-(3-{5-cyclobutyl-2H-pyrazolo[3,4-b]pyridin-2-yl}-4-fluorophenyl)-2,4-dimethyl-1,3-oxazole-5-carboxamide] | 300 | 310 | 130 | 150 | – | – | – | –
4 | Cc1cnc2nn(-c3cc(NC(=O)N4CC(F)C4)ccc3F)cc2c1 [Compound 318, 3-fluoro-N-(4-fluoro-3-{5-methyl-2H-pyrazolo[3,4-b]pyridin-2-yl}phenyl)azetidine-1-carboxamide] | 27 | 32 | 13 | 15 | – | – | – | –
5 | CN(C)c1cnc2nn(-c3cc(NC(=O)C4CC4)ccc3F)cc2c1 [Compound 331, N-{3-[5-(dimethylamino)-2H-pyrazolo[3,4-b]pyridin-2-yl]-4-fluorophenyl}cyclopropanecarboxamide] | 217 | 910 | 138 | 206 | – | – | – | –
6 | O=C(Nc1ccc(F)c(-n2cc3cc(-c4ncccc4F)cnc3n2)c1)C1CC1 [Compound 332, N-{4-fluoro-3-[5-(3-fluoropyridin-2-yl)-2H-pyrazolo[3,4-b]pyridin-2-yl]phenyl}cyclopropanecarboxamide] | 28 | 75 | 15 | 38 | – | – | – | –
7 | CCC(C)(C)c1cnc2nn(-c3cc(NC(=O)N4CC(F)C4)ccc3F)cc2c1 [Compound 24, 3-fluoro-N-{4-fluoro-3-[5-(2-methylbutan-2-yl)-2H-pyrazolo[3,4-b]pyridin-2-yl]phenyl}azetidine-1-carboxamide] | 880 | 1000 | 440 | 610 | – | – | – | –
8 | O=C(Nc1ccc(F)c(-n2cc3cc(N4CCC5(CC4)COC5)cnc3n2)c1)N1CC(F)C1 [Compound 248, 3-fluoro-N-[4-fluoro-3-(5-{2-oxa-7-azaspiro[3.5]nonan-7-yl}-2H-pyrazolo[3,4-b]pyridin-2-yl)phenyl]azetidine-1-carboxamide] | 117 | 8 | 11 | 5 | – | – | – | –
9 | O=C(Nc1cccc(-n2cc3cc(N4CC(F)(F)C4)cnc3n2)c1)N1CCC1 [Compound 343, N-{3-[5-(3,3-difluoroazetidin-1-yl)-2H-pyrazolo[3,4-b]pyridin-2-yl]phenyl}azetidine-1-carboxamide] | 10 | 32 | 14 | 9 | – | – | – | –
10 | O=C(Nc1ccc(F)c(-n2cc3cc(-c4ccccn4)cnc3n2)c1)[C@H]1C[C@@H]1F (single isomer, unassigned) [Compound 273, (1 S,2R)-2-fluoro-N-(4-fluoro-3-(5-(pyridin-2-yl)-2H-pyrazolo[3,4-b]pyridin-2-yl)phenyl)cyclopropane-1-carboxamide or (1R,2S)-2-fluoro-N-(4-fluoro-3-(5-(pyridin-2-yl)-2H-pyrazolo[3,4-b]pyridin-2-yl)phenyl)cyclopropane-1-carboxamide] | – | – | – | – | 27 | 6 | 17 | 45
11 | O=C(Nc1ccc(F)c(-n2cc3cc(C4CCCCC4)cnc3n2)c1)N1CC(F)C1 [Compound 19, N-(3-{5-cyclohexyl-2H-pyrazolo[3,4-b]pyridin-2-yl}-4-fluorophenyl)-3-fluoroazetidine-1-carboxamide] | 11 | 81 | 11 | < 23 | – | – | – | –
